The source made the active and inactive calls. No cut-off for these calls is given here.
Columns and labels:
MDA-MB-231 [1] = assay: Cytotoxicity against human MDA-MB-231 cells at 10 ug/ml by SRB assay; assay type: functional, cell-based
A549 [2] = assay: Cytotoxicity against human A549 cells at 10 ug/ml by SRB assay; assay type: functional, cell-based
HT-29 [3] = assay: Cytotoxicity against human HT-29 cells at 10 ug/ml by SRB assay; assay type: functional, cell-based
A549 [4] = assay: Cytotoxicity against human A549 cells by SRB assay; assay type: functional
HT-29 [5] = assay: Cytotoxicity against human HT-29 cells by SRB assay; assay type: functional
MDA-MB-231 [6] = assay: Cytotoxicity against human MDA-MB-231 cells by SRB assay; assay type: functional

SMILES | Activity (MDA-MB-231 [1]) | Activity (A549 [2]) | Activity (HT-29 [3]) | GI50 (A549 [4]) [µM] | GI50 (HT-29 [5]) [µM] | GI50 (MDA-MB-231 [6]) [µM]
CC(C)=CCCC(C)(N=C=S)[C@H]1CC=C(C)CC1 (some centres not stated) | inactive | inactive | inactive |  |  | 
C[C@H]1CCCC2=C[C@H](C#N)[C@H]3[C@H](C3(C)C)[C@@]21C | inactive | inactive | inactive |  |  | 
C=C(C)[C@]1(O)CC[C@@]2(C)CCC[C@@](C)(N=C=S)[C@@H]2C1 | inactive | inactive | inactive |  |  | 
C[C@H]1CC[C@@H](O)C2=CC(=O)[C@H]3[C@H](C3(C)C)[C@@]21C | inactive | inactive | inactive |  |  | 
C[C@H]1CC(=O)C=C2[C@H]3O[C@H]3[C@H]3[C@H](C3(C)C)[C@@]21C [AXINYSONE E] |  |  |  | 38.7 | 38.3 | 
C[C@H]1CCCC2=CC(=O)[C@H]3[C@H](C3(C)C)[C@@]21C | inactive | inactive | inactive |  |  | 
C[C@H]1CC[C@@H](OO)C2=CC(=O)[C@H]3[C@H](C3(C)C)[C@@]21C | inactive | inactive | inactive |  |  | 
C=C(C)[C@]1(OO)CC[C@@]2(C)CCC[C@@](C)(N=C=S)[C@@H]2C1 [AXINISOTHIOCYANATE N] |  |  |  | 32.6 |  | 33.3
C[C@H]1CC[C@H](O)C2=CC(=O)[C@H]3[C@H](C3(C)C)[C@@]21C | inactive | inactive | inactive |  |  | 
C=C1CCC[C@]2(C)CC[C@@H](C(=C)C)[C@H](N=C=S)[C@@H]12 | inactive | inactive | inactive |  |  | 
C[C@H]1CCC[C@]2(O)[C@@H](O)C(=O)[C@H]3[C@H](C3(C)C)[C@]12C | inactive | inactive | inactive |  |  | 
COc1cccc2c1C(=O)c1c(O)c3c(c(O)c1C2=O)C[C@@](O)(C(=O)CO)C[C@@H]3O[C@H]1C[C@H](N)[C@H](O)[C@H](C)O1 [DOXORUBICIN] |  |  |  | 0.1 | 0.1 | 0.1
C=C(C)[C@H]1CC[C@@]2(C)CCC[C@@](C)(N=C=S)[C@@H]2C1 | inactive | inactive | inactive |  |  | 
